Target: T1, CASK (Homo sapiens, UniProt O14936)
T1 construct: purchased Thermo Fisher Scientific (Life Technologies) SelectScreen
Assay: SelectScreen LanthaScreen
Type: binding
Details: read-out: % displacement
Outline: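 NU5455 was profiled across the SelectScreen Broad panel of kinase activity and binding assays. Z'LYTE reactions such as CSF1R ran at apparent Km ATP, while the Adapta CAMK1 assay used ATP listed as 10. Values are given as percent.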

T1 sequence (O14936 whole entry): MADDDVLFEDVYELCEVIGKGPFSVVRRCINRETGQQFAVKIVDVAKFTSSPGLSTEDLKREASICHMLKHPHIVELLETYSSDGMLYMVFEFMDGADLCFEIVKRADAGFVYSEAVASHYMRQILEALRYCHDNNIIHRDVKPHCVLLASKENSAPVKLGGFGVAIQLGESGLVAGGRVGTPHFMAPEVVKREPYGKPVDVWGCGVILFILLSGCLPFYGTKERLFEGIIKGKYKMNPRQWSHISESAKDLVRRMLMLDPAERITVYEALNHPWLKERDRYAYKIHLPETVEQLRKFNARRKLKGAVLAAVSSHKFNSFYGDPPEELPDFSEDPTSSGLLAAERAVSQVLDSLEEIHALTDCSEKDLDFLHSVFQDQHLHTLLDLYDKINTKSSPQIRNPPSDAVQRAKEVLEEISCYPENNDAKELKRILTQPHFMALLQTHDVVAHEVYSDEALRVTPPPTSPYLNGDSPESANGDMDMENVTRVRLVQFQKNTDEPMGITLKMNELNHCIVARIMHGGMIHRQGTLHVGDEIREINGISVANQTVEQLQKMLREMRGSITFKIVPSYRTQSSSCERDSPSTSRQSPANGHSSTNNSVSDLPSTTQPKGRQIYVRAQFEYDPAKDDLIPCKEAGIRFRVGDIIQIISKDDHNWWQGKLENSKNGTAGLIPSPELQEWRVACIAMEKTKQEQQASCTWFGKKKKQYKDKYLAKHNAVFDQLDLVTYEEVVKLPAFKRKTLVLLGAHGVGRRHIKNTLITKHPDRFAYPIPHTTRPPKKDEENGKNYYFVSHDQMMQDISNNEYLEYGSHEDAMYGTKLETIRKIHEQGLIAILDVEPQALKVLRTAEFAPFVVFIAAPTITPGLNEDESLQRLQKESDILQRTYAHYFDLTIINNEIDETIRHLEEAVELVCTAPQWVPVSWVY

For CN(C(=O)CN1CCOCC1)c1ccc2sc3c(-c4cccc5c(=O)cc(N6CC7CCC(C6)O7)oc45)cccc3c2c1 [NU5455], the inhibition at 1 µM was -3.1%.

Source: paper PMC6934184, “Selective DNA-PKcs inhibition extends the therapeutic index of localized radiotherapy and chemotherapy” (The Journal of Clinical Investigation, 2019)
